# Laboratory results taken from US9333189B2, “Taxane- and taxoid-protein compositions” (ONCBIOMUNE, INC., priority 2010, dated 2016).
# Like-named read-outs stand apart in the source and are kept apart here.
# System: MCF-7 cells
# Assay: 3H-thymidine incorporation cell growth assay, MCF-7
# Type: cell-based, Human
# [1] = metal-transferrin without drug, read-out: IC50 of Drugs bound by a Glutaraldehyde Reaction to the Surface of Transferrin (M): No Drug
# [2] = daunorubicin bound to metal-transferrin by glutaraldehyde, read-out: IC50 of Drugs bound by a Glutaraldehyde Reaction to the Surface of Transferrin (M): Daunorubicin
# Protocol: Human cancer cell lines were obtained from the American Type Culture Collection (Rockville, Md.); the NCI/Adr-Res cell line came from the National Cancer Institute (Bethesda, Md.). The cancer cell lines were maintained in alpha-MEM supplemented with 10% fetal calf serum, 1 mM glutamine and 0.05 mg/mL gentamicin (Life Technologies, Inc., Frederick, Md.) in 5% CO2 at 37° C. Cells were removed from cell culture flask or plate by trypsin-EDTA (0.05% trypsin and 0.53 mM EDTA) digestion.
# Cell growth was measured with a ^3[H]-thymidine incorporation assay. Cancer cells were plated into each well of a 96-well cell culture plate as noted in Table 2 (e.g., MCF-7 cells were plated at 3000 cells/well) and incubated overnight. Culture media was replaced with media containing increasing concentrations of transferrin based drugs, and the cells were incubated with these drugs for 3 days. Then, ^3[H]-thymidine (0.1 uCi/well) was added to each well for the last 16 hours of incubation. The cells were removed from the plate by trypsin-EDTA digestion and harvested onto a glass-fiber filter (Skatron basic96 Harvester, Shatron Inc., Sterling, Va.). The radioactivity incorporated into the cellular DNA was determined by liquid scintillation counting (LS 6500, Beckman Co., Fullerton, Calif.). Cell proliferation was quantitated by ^3[H]-thymidine incorporation and expressed as a percentage of the untreated control. The experiments were repeated a minimum of three times independently.
IC50 [1] [M],Substance,IC50 [2] [M]
2.7e-06,"In-tf: Indium-transferrin, no drug",–
3.4e-06,"Ga-tf: Human transferrin loaded with gallium, no drug",–
–,In-tf Daunorubicin: Daunorubicin bound by a glutaraldehyde reaction to the surface of indium-transferrin,2.7e-08
–,Fe-tf Daunorubicin: Daunorubicin bound by a glutaraldehyde reaction to the surface of iron-transferrin,2.2e-07
–,Ga-tf Daunorubicin: Daunorubicin bound by a glutaraldehyde reaction to the surface of gallium-transferrin,3.6e-07
